Data: US7144862B2, “Orally administered peptides to ameliorate atherosclerosis” (The Regents of the University of California, priority 2000, dated 2006)
In brackets after ≈: the same amount, converted by molar mass. Several values for one entry are separate records, joined by “and”; a condition that tells them apart may be missing. Identical values can stand only once. Like-named read-outs stand apart in the source and are kept apart here. Non-standard residues stand in square brackets, D forms with d. Residues, ends and D or L forms follow the SMILES beside them.

Key:
[1] = Circular dichroism, percent helicity; type: physicochemical; conditions: for Percent Helicity PBS: 11 μM peptide in PBS; for Percent Helicity DMPC: 11 μM peptide, Peptide: DMPC 1:20 (mol/mol)
Method: Briefly, spectra were obtained using a cell with a 0.1 cm path length and measurements were taken every nm from 260 nm to 190 nm at 25° C. All the CD spectra were signal averaged by adding four scans, base line corrected and smoothed. Peptide solutions in PBS, pH 7.4, were used at a concentration of 11 μM. Peptide-DMPC complexes (1:20 mol:mol) were used to determine the effect of lipid binding on the helicity of these peptides. These complexes were prepared by adding the appropriate volume of peptide solution to DMPC multilamellar vesicles. DMPC multilamellar vesicles were prepared as follows: A known amount of lipid was dissolved in ethanol and the solvent was removed by evaporating slowly under a thin stream of nitrogen. Residual solvent was removed by storing the lipid film under vacuum overnight. An appropriate volume of PBS, pH 7.4 was added to the thin lipid film to give the required final concentration of DMPC.

[2] = system: human artery wall cell cocultures; assay: LDL-induced monocyte chemotactic activity with the homologous series of peptides (Example 3); type: cell-based; conditions: peptide at 100 μg/ml, LDL 250 μg protein/ml, 8 h
Method: Microtitre plates were treated with 0.1% gelatin at 37° C. overnight. HASMC were added at a confluent density of 1×10^5 cells/cm^2. […] HAEC were subsequently added at 2×10^5 cells/cm^2 and were allowed to grow, forming a complete monolayer of confluent HAEC in two days. In all experiments, HAEC and autologous HASMC (from the same donor) were used at passage levels of four to six. […] The cocultures were treated with native LDL(250 μg protein/ml) or presence of HDL (350 μg protein/ml) or peptides for 8 h.

[3] = DSC, bilayer to hexagonal phase transition of DiPoPE; type: physicochemical; conditions: heating scan rate 37°/h
Method: (§1) A known amount of phospholipid was dissolved in chloroform. For one set of samples, peptide was dissolved in methanol and added to a solution of DiPoPE in chloroforn/methanol (2:1, v:v). For both, pure lipid samples and the organic solutions of lipid and peptide, solvent was removed under a slow stream of nitrogen. Residual solvent was removed under vacuum. […] For DMPC, four consecutive scans with a 60 minute equilibration time between scans were taken. DSC thermograms were analyzed using the software provided by MicroCal Inc., Amherst, Mass., and Origin, version 5.0.
In the current study we prepared the peptide-lipid mixtures in two ways. One was by adding the peptide in organic solvent to the lipid in organic solvent followed by depositing the material as a film and subsequently hydrating with buffer. In the other method, the peptide and lipid were mixed after each was hydrated separately. If the mixture comes to equilibrium prior to the DSC analysis, it should not matter how the peptide and lipid are originally mixed. However, membrane systems can equilibrate slowly, in which case there may be more peptide in the lipid when it was incorporated at high concentrations into the lipid film.

[4] = DSC, chain melting transition of DMPC; type: physicochemical; conditions: DMPC/peptide 100:1 (mol/mol); for TCM(° C.): 1.5 mM DMPC, chain melting transition temperature; for ΔHCM (kcals/mol): enthalpy of the transition; for ΔT1/2 (° C.): width at half maximum of the transition
Method: as §1
The effect of these 18A analogues on the chain melting transition of multilamellar vesicles of DMPC was studied by DSC using peptide-lipid mixtures at 100:1 lipid/peptide molar ratio.

[5] = Surface pressure measurements: monolayer exclusion pressure; type: physicochemical; conditions: EPC monolayer; reproducibility ± 1 dyn/cm
Method: An insoluble monolayer of egg phosphatidylcholine (EPC) was spread at the air-water interface in a Teflon dish at room temperature to give an initial surface pressure (πi) in the range of 5–45 dyn/cm. A solution of peptides in PBS containing 1.5M Gdn. HCl was carefully injected in to the subphase to give a final concentration of 50 μg/dL. The Gdn. HCl was diluted in the subphase to a final concentration of ≦1 mM to allow the peptides to renature. The subphase was stirred continuously and the increase in EPC monolayer surface pressure (Δπ) was recorded until a steady state value was obtained. The value of the initial surface pressure (πi) at which the peptides no longer penetrate the EYPC monolayer i.e. the exclusion pressure (πe), was calculated by extrapolating the πi vs Δπ linear regression fit to Δπ=0 dyn/cm.

[6] = Right angle light scattering, dissolution of EPC MLVs; type: physicochemical; conditions: 105 μM EPC, equimolar peptide; for clarification of EPC MLVs: 25° C., 30 min
Method: EPC MLVs were prepared by evaporating a solution of EPC (Avanti Polar, AL) under nitrogen and hydrating the lipid film with phosphate-buffered saline (pH 7.4). […] Turbidity clarification was monitored for 30 min.

Solubility in PBS = type: physicochemical
Method: The peptides were purified on a preparative Vydac C4 column by reversed-phase (RP)-HPLC using water (with 0.1% trifluoroacetic acid) and acetonitrile (0.1% trifluoroacetic acid). The purity and the retention times of the peptides were determined on an analytical Vydac C18 column using a gradient of 25%-58% acetonitrile in water containing 0.1% TFA. The purity of these peptides was also confirmed by mass spectrometry. The mass was in agreement with the calculated molecular weight. Although both the 3F peptides and 4F have additional Phe residues compared to 2F, the retention times of these peptides on the C18 column are not very different (˜22 min). A sudden increase in the retention time is apparent with 5F, 6F and 7F (˜26 min). With increasing number of Phe residues, the solubility of these peptides in PBS decreases.

[7] = system: human artery wall cell cocultures; assay: Lipoproteins from mice given peptide by gavage tested in human artery wall cell cocultures (monocyte chemotactic activity)
Method: Groups of LDL receptor-deficient mice (n=3) were administered the D-peptides or the saline vehicle by gavage. […] Blood was collected from retroorbital sinus under mild anesthesia 17 hrs later. LDL was isolated from plasma by FPLC. Cocultures of artery wall cells were incubated with medium alone (NO ADDITION), control LDL from normal subjects (LDL), LDL plus control HDL from normal subjects (+HDL). […] The cocultures were incubated for 4 hrs at 37° C. in the presence of 10% LPDS. The supernatants were then discarded, the cocultures were washed and incubated with culture medium without serum or LPDS for an additional 4 hrs. This conditioned medium was collected and analyzed for monocyte chemotactic activity. The values are mean±SD of quadruplicate cocultures.
Blood was collect after 6 hrs, plasma HDL and LDL were isolated by gel filtration (FPLC) and examined in the cocultures. […] Human LDL at 200 μg protein/ml was added to human artery wall cell cocultures together with human HDL (hHDL) at 350 μg protein/ml or mouse HDL (mHDL) at 100 μg cholesterol/ml taken from mice that received saline (Saline Rx) or L-4F (L-4F Rx) or D-4F (D-4F Rx) and monocyte chemotactic activity was determined as described herein. […] On the right, mouse LDL (mLDL) was isolated from mice receiving saline (Saline Rx) or L-4F (L4F Rx) or D-4F (D-4F Rx) and was added at 100 μg cholesterol/ml to the artery wall cell cocultures without HDL and monocyte chemotactic activity determined. Values are mean±SD) for four wells in two independent experiments.
Either saline or 2F synthesized from D amino acids or from L amino acids was instilled in the stomachs of mice by gavage (instillation in the stomach by tube). After gavage the mice were bled and their LDL isolated and added to the human artery wall cell cocultures.
The animals were bled 1.5, 3 or 6 hours later and their HDL, LDL, and VLDL/IDL isolated.
Human aortic endothelial and smooth muscle cells were isolated and cultured as previously described (Id.). Cellular oxidation of LDL in the presence and absence of HDL was determined as described (Id.). Human blood monocytes were isolated after obtaining informed consent and monocyte chemotaxis was determined as described previously^5.

[8] = system: Human aortic wall cocultures; assay: LDL plus peptide in vitro in human aortic wall cocultures, monocyte chemotactic activity (Example 2); type: cell-based; conditions: control LDL 250 μg/ml plus varying amounts of peptide
Method: Human aortic wall cocultures were incubated with medium alone (LDL, NO CELLS or CELLS, NO LDL, see FIG. 9), control LDL from normal subjects at 250 μg/ml (LDL) and LDL plus control HDL from normal subjects at 350 μg/ml (+HDL). Other cocultures were incubated With the control LDL together with varying amounts (micrograms shown on the abscissa) of either D-2F, or L-2F (third panel from the left, 2F) or D-37-pA or L-37pA (last panel on the right, 37pA). The data represent mean±SD of values obtained from quadruplicate cocultures.

[9] = mouse, in vivo
Method: The 5F peptide, MoAI, and human apo A-I were labeled with ^125I by the method of Bilheimer et al. (1972) Biochim. Biophys. Acta 260: 212–221. Mice were placed on a modified Thomas-Hartroft atherogenic diet (#TD88051; Teklad, Madison, Wis.) for four weeks at which time daily intraperitoneal injections of peptide or protein dissolved in 200 μl phosphate-buffered saline (PBS) were begun. Animals injected with MoAI or human apo A-I received 50 μg per animal; those injected with 5F received 20 μg. Animals were not fasted for the kinetic studies and blood samples were taken under xylazine:ketamine anesthesia from the retro-orbital sinus at 15, 30, and 45 minutes, and 1, 1.5, 2, 3, 4, 6, 8, 12, and 24 hours following injection. Each animal provided three blood samples at different time points (all retro-orbital and alternating eyes), and at least three samples were collected (from different animals) at each time point. Samples were collected into heparinized capillary tubes, then placed in microcentrifuge tubes; the plasma was separated by centrifugation. Duplicate 10 μl aliquots of each sample were taken for radioactivity determination, using gamma counting (Cobra; Packard Instruments, Downers Grove, Ill.) for 10 minutes per sample. Total plasma volume was calculated as 4.2% body weight. Each sample was expressed as percent of injected CPM in total plasma. Free ^125I was determined by trichloroacetic acid (TCA) precipitation (1 ml of 10% TCA per 10 μl plasma sample). Fitting to the kinetic model was done using all data points, rather than averages at each time point (PKAnalyst, MicroMath Scientific Software, Salt Lake City, Utah).
Treatment groups were compared by two-tailed t-tests or one way analysis of variance (where the data were normally distributed), or by one way analysis of variance on ranks (SigmaStat; SPSS Science, Chicago, Ill.). Kinetics of peptide or protein turnover were analyzed by fitting to a first order one-compartment kinetic model assuming non-equal input and output rates (PKAnalyst; MicroMath Scientific Software, Salt Lake City, Utah).

[10] = 5F, 100 μg per animal by oral gavage, LDL receptor null mice, blood after 6 hrs

| Compound | Percent Helicity PBS [1] [%] | Percent Helicity DMPC [1] [%] | inhibition of LDL-induced monocyte chemotaxis [2] | shift in TH of DiPoPE with mol fraction of peptide [3] | TCM(° C.) [4] [°C] | ΔHCM (kcals/mol) [4] [kcals/mol] | ΔT1/2 (° C.) [4] [°C] | Monolayer Exclusion Pressure(πc) [5] | clarification of EPC MLVs [6] | Solubility (Solubility in PBS) [µg/mL] | solubility (Solubility in PBS; in PBS, read-out: Solubility) [µg/mL] | further results |
| --- | --- | --- | --- | --- | --- | --- | --- | --- | --- | --- | --- | --- |
| CC(=O)N[C@@H](CC(=O)O)C(=O)N[C@@H](Cc1c[nH]c2ccccc12)C(=O)N[C@@H](Cc1ccccc1)C(=O)N[C@@H](CCCCN)C(=O)N[C@@H](C)C(=O)N[C@@H](Cc1ccccc1)C(=O)N[C@@H](Cc1ccc(O)cc1)C(=O)N[C@@H](CC(=O)O)C(=O)N[C@@H](CCCCN)C(=O)N[C@H](C(=O)N[C@@H](C)C(=O)N[C@@H](CCC(=O)O)C(=O)N[C@@H](CCCCN)C(=O)N[C@@H](Cc1ccccc1)C(=O)N[C@@H](CCCCN)C(=O)N[C@@H](CCC(=O)O)C(=O)N[C@@H](C)C(=O)N[C@@H](Cc1ccccc1)C(N)=O)C(C)C [Peptide 4F, Ac-D-W-F-K-A-F-Y-D-K-V-A-E-K-F-K-E-A-F-NH2] | 45 | 44 | significant and similar inhibition | more rapid increase is observed at lower peptide concentrations | 23.2 | 5.3 | 0.4 | 40 dyn/cm | most effective in clarifying EPC MLVs with activity similar to that of Triton X-100 | 1300 (≈ 563 µM) | – | time for 50% clearance of the turbidity of EPC MLVs [6]: shortest; solubility (Solubility in PBS; Solubility (mg/ml)): 1250 to 1400 µg/mL (≈ 541 to 606 µM) |
| CC(=O)N[C@H](CC(=O)O)C(=O)N[C@H](Cc1c[nH]c2ccccc12)C(=O)N[C@H](CC(C)C)C(=O)N[C@H](CCCCN)C(=O)N[C@H](C)C(=O)N[C@H](Cc1ccccc1)C(=O)N[C@H](Cc1ccc(O)cc1)C(=O)N[C@H](CC(=O)O)C(=O)N[C@H](CCCCN)C(=O)N[C@@H](C(=O)N[C@H](Cc1ccccc1)C(=O)N[C@H](CCC(=O)O)C(=O)N[C@H](CCCCN)C(=O)N[C@H](Cc1ccccc1)C(=O)N[C@H](CCCCN)C(=O)N[C@H](CCC(=O)O)C(=O)N[C@H](Cc1ccccc1)C(=O)N[C@H](Cc1ccccc1)C(N)=O)C(C)C [Peptide D-5F, Ac-D-W-L-K-A-F-Y-D-K-V-F-E-K-F-K-E-F-F-NH2] (Ac-[dD][dW][dL][dK][dA][dF][dY][dD][dK][dV][dF][dE][dK][dF][dK][dE][dF][dF]-NH2) | – | – | – | – | – | – | – | – | – | – | – | HDL protective capacity [7, 10]: markedly more protective; LDL resistance to oxidation [7, 10]: highly resistant to oxidation; monocyte chemotactic activity induced by mouse VLDL/IDL fraction ([7]; 50 micrograms by gavage, 3 hour time point): significantly less monocyte chemotactic activity; protection of control LDL by mouse HDL ([7]; 50 micrograms by gavage, HDL taken after 6 hours): slightly less; monocyte chemotactic activity induced by mouse LDL ([7]; 50 micrograms by gavage, after 3 h and 6 h): significantly less monocyte chemotactic activity |
| Ac-DWFKAFYDKFFEKFKEFF-NH2 [Peptide 7F, Ac-D-W-F-K-A-F-Y-D-K-F-F-E-K-F-K-E-F-F-NH2] | 58 | 68 | significantly less effective than peptides 4F, 5F and 6F | do not significantly affect TH | 23.2 | 4.5 | 0.5 | 45 dyn/cm | clarified the EPC MLVs to a similar extents | – | – | initial lag period in EPC MLV clearance [6]: ~300 s; time for 50% clearance of the turbidity of EPC MLVs [6]: longest time |
| Ac-DWFKAFYDKVAEKLKEAF-NH2 [3F^3] | – | – | – | – | – | – | – | – | – | – | 1250 to 1400 | – |
| Ac-DWLKAFYDKFFEKFKEFF-NH2 [Peptide 6F, Ac-D-W-L-K-A-F-Y-D-K-F-F-E-K-F-K-E-F-F-NH2] | 67 | 50 | significant and similar inhibition | do not significantly affect TH | 23.1 | 4.0 | 0.5 | 45 dyn/cm and 46 dyn/cm | clarified the EPC MLVs to a similar extents | 30 | – | solubility (Solubility in PBS; Solubility (mg/ml)): 30 to 100 µg/mL |
| Ac-DWLKAFYDKVFEKFKEFF-NH2 [Peptide L-5F, Ac-D-W-L-K-A-F-Y-D-K-V-F-E-K-F-K-E-F-F-NH2] | – | – | – | – | – | – | – | – | – | – | – | HDL protective capacity [7, 10]: but not L-5F rendered the HDL markedly more protective |
| H-DWLKAFYDKVAEKLKEAF-OH [Peptide 18A, D-W-L-K-A-F-Y-D-K-V-A-E-K-L-K-E-A-F, reference compound] | – | – | – | – | – | – | – | 30 dyn/cm | – | – | > 2000 | – |
| H-DWLKAFYDKVAEKLKEAFPDWLKAFYDKVAEKLKEAF-OH [Peptide 37pA, DWLKAFYDKVAEKLKEAFPDWLKAFYDKVAEKLKEAF, reference compound] | – | – | – | – | – | – | – | 40 dyn/cm and 41 dyn/cm | – | – | > 2000 | – |
| H-DWLKAFYDKVAEKLKEAFPDWLKAFYDKVAEKLKEAF-OH [Peptide L-37pA, reference compound] | – | – | – | – | – | – | – | – | – | – | – | monocyte chemotactic activity induced by LDL treated with peptide in vitro [8]: significantly different from LDL |
| Human apo A-I: Human apo A-I is a 243 residue protein, major protein constituent of HDL | – | – | – | – | – | – | – | 34 dyn/cm | does not clarify EPC MLVs | >2000 | – | Max. % in plasma [9]: 23.7%; Time (h) to max. CPM ([9]; ip): 3.61 h; T½ ([9]; ip): 15.6 h |
